Data as given in patent US8598125B2, “CDCA1 peptide and pharmaceutical agent comprising the same” (Onco Therapy Science, Inc., priority 2007, dated 2013).
Where no end group is shown, it is not given here.

Experiments:
Type in all cases: cell-based
[1] = test system: PANC1 cells (CDCA1+, HLA-A2+); assay: 51Cr release assay of peptide-induced human CTLs against PANC1; details: No. 1: cancer patient donor 1 CTLs; No. 4: healthy donor 1 CTLs
Text: (§1) Monocyte-derived DC cells were used as antigen-presenting cells for induction of CTLs in response to HLA-presented peptides. DCs were obtained by previously reported in vitro methods (Suda T, et al. Cancer Sci. 2007; Nakahara S, et al. Cancer Res. 2003; 63:4112-8). Briefly, peripheral blood […] (PBMCs) isolated from HLA-A*0201 positive healthy volunteers and NSCLC patients using a Ficoll-Paque solution (GE Healthcare UK, Ltd., Buckinghamshire, UK) were screened for […] CD14 positive populations using MicroBeads (Miltenyi Biotec, Bergisch Gladbach, Germany). […] Six days after the third peptide stimulation on day 25, the antigen-specific CTL response was evaluated by Chromium (Cr) release assay and IFN-γ ELISPOT assay.
(§2) CTLs were co-cultured at various effector cell/target cell ratios with target cells which are various cancer cell lines and T2 cells with or without peptide pulsing, and ^51Cr release assay and IFN-γ ELISPOT assay were conducted using conventional methods (Komori H, et al., Clin. Cancer Res. 2006; 12:2689-2697; Makita M, et al. Clin. Cancer Res. 2002; 8:2626-31; Yokomine K, et al. Cancer Sci. 2007; 98:1930-5). […] Six hours after incubation, 50 μL of the supernatant was collected from each well, and radioactivity was quantified using a gamma counter. […]

[2] = test system: A549 cells (CDCA1+, HLA-2−); assay: 51Cr release assay of peptide-induced human CTLs against A549; details: No. 1: cancer patient donor 1 CTLs; No. 4: healthy donor 1 CTLs
Text: as §1, §2

[3] = test system: peptide-pulsed T2 cells; assay: 51Cr release assay of peptide-induced human CTLs against peptide-pulsed T2 cells; details: CTLs from cancer patient donor 1 and healthy donor 1
Text: as §1, §2

[4] = test system: COLO201 cells (CDCA1−, HLA-A2+); assay: 51Cr release assay of peptide-induced human CTLs against COLO201; details: cancer patient donor 1 CTLs
Text: as §1, §2

| Sequence | cytotoxic activity against PANC1 cells [1] | cytotoxic activity against A549 cells [2] | cytotoxic activity against peptide-pulsed T2 cells [3] | cytotoxic activity against COLO201 cells [4] |
| --- | --- | --- | --- | --- |
| KLATAQFKI [No. 4, KLATAQFKI] | showed cytotoxic activity | not | showed cytotoxic activity | – |
| YMMPVNSEV [No. 1, YMMPVNSEV] | showed cytotoxic activity | not | showed cytotoxic activity | not |
